Assay results reported in publication PMC12524297 (International Journal of Molecular Sciences, 2025).
Like-named read-outs stand apart in the source and are kept apart here.

Experiments:
[1] = In vitro assays confirming flagged compound (no details given)
Excerpt: 5.Implementation and Reproducibility
5.1 Real-World Deployment in Chemical Safety Assessment
HazChemNet has been integrated into a cloud-based decision support system for chemical safety evaluation, enabling real-time toxicity prediction for industrial and regulatory use. Key applications include:
Industrial Chemical Screening:
A pharmaceutical company utilized HazChemNet to prioritize 1,200 candidate compounds for drug development. The model identified 18% as high-risk (toxic), reducing experimental testing costs by 35%.
Environmental Regulation Compliance:
A regulatory agency deployed the model to screen 5,000 industrial chemicals under the EU REACH framework.
HazChemNet achieved 89% concordance with expert evaluations, accelerating risk assessment workflows.
5.2 Case Study: Identification of Emerging Contaminants
We applied HazChemNet to predict the toxicity of per- and polyfluoroalkyl substances (PFAS), a class of persistent environmental pollutants. The model identified 22 out of 30 PFAS compounds as hazardous, including:
PFOS (Perfluorooctanesulfonic acid): Predicted probability = 0.93 (high risk).
GenX (Hexafluoropropylene oxide dimer acid): Predicted probability = 0.87 (moderate risk).
Validation: Experimental LC50 data from zebrafish assays confirmed the predictions with a Spearman correlation of ρ […]
5.3 Integration with Laboratory Information Systems […]

[2] = tested on: Caenorhabditis elegans (C. elegans, N2 strain)

Molecule	mortality ([2]; in vivo)	further results
O=C1C=CC(=O)C(Cl)=C1 [CID_123456]	–	confirmation of hazard flag by in vitro assays [1]: confirmed by in vitro assays
O=C(O)CC(O)(CC(=O)O)C(=O)O [Citric Acid]	no significant mortality	–
OCC(O)CO [Glycerol]	no significant mortality	–
CC(=O)[O-].CC(=O)[O-].[Pb+2] [Lead Acetate]	–	LD50 ([2]; L4-stage worms, 24 h at 20 °C, K-M buffer, Probit analysis): 0.464 to 1 mg/mL
Ethyl Alcohol	–	LD50 ([2]; in vivo): 46.4 to 100 mg/mL
Gibberellin	no significant mortality	–
